According to patent US20040224972A1, “Medicinal compositions for concomitant use as anticancer agent” (priority 2000, published 2004):
Where a name gives a salt, the structure may show the parent alone. Read-outs that look alike come from different tables or passages of the source.

Experiments:
[1] = tested on: Human colon cancer strain SW620 xenograft; experiment: Combined use of E7070 and CPT-11 in human colon cancer SW620 xenograft model; conditions: E7070 25 mg/kg/day QDx5, CPT-11 62.5 mg/kg/day Q4Dx3
Procedure: Human colon cancer strain SW620 (purchased from ATCC) was cultured in RPMI1640 (containing 10% FBS) in a 5% Co2gas incubator until it attained about 80% confluence, and the cells were harvested with trypsin-EDTA and suspended in Hanks balanced solution to prepare a suspension of 5×10^7 cells/ml. 0.1 ml of the cell suspension was implanted subcutaneously in each nude mouse. When the average tumor volume reached 226 mm^3 after the implantation, E7070 in a dose of 25 mg/kg/day and/or CPT-11 in a dose of 62.5 mg/kg/day were administered either alone or in combination. E7070 alone was intravenously administered once per day for 5 days (first to fifth days), while CPT-11 alone was intravenously administered 3 times (once every 4 days, that is, on the first, fifth and ninth days). Administration in combination was performed in 3 schedules, that is, simultaneous administration (E7070 on the first to fifth days; CPT-11 on the first, fifth and ninth days), previous administration of E7070 (E7070 on the first to fifth days; CPT-11 on the sixth, tenth and fourteenth days) and previous administration of CPT-11 (E7070 on the tenth to fourteenth days; CPT-11 on the first, fifth and ninth days). After the administration was initiated, the longer and shorter diameters of the tumor were measured at the frequency of 2 times/week with digital calipers (Mitsutoyo), and the tumor volume was calculated according to the following equation.
(§1) Tumor volume=longer diameter of tumor (mm)×shorter diameter of tumor (mm)^2/2
(§2) The items for determination of antitumor effect were the following 2 items:
(§3) Minimum relative tumor volume (mRTV): Minimum value of relative tumor volume (RTV*)
(§4) *: Tumor volume on n days after first treatment/tumor volume at the start of treatment.

[2] = tested on: Human colon cancer strain HCT15 xenograft; conditions: E7070 30 mg/kg/day QDx5, CPT-11 75 mg/kg/day Q4Dx3; for Toxicity mRBW mean (minimum relative body weight): day of minimum in parentheses
Procedure: Human colon cancer strain HCT15 (purchased from ATCC) was cultured in RPMI1640 (containing 10%FBS) in a 5%CO2gas incubator until it attained about 80% confluence, and the cells were harvested with trypsin-EDTA and suspended in Hanks balanced solution to prepare a suspension of 5×10^7 cells/ml. 0.1 ml of the cell suspension was implanted subcutaneously in each nude mouse. When the average tumor volume reached 182 mm3 after the implantation, E7070 in a dose of 30 mg/kg/day and/or CPT-11 in a dose of 75 mg/kg/day were administered either alone or in combination. E7070was intravenously administered once per day for 5 days (first to fifth days), while CPT-11 was intravenously administered 3 times (once every 4 days, that is, on the first, fifth and ninth days). After the administration was initiated, the longer and shorter diameters of the tumor were measured at the frequency of 2 times/week with digital calipers (Mitsutoyo), and the tumor volume was calculated according to the following equation.
as §1, §2
Tx4: The time in days for tumor size to attain 4 folds of initial size.
as §3, §4

[3] = tested on: Human breast cancer HBC4 xenograft; experiment: Combined use of E7070 and capecitabine in human breast cancer HBC4 xenograft model; type: in vivo, human cells in nude mouse; conditions: nude mice, s.c. HBC4; E7070 30.625 mg/kg/day (87.5% MTD) day 1-5; capecitabine 1.3125 mmol/kg/day (87.5% MTD) 14 days; combination: E7070 day 1-5, capecitabine day 6-19
Procedure: When the average tumor volume reached 114 mm3 after the implantation, E7070 in a dose of 30.625 mg/kg/day and/or capecitabine in a dose of 1.3125 mmol/kg/day were administered either alone or in combination.

[4] = tested on: Human colon cancer strain Colo320D. M. xenograft; experiment: Combined use of E7070 and 5-FU in human colon cancer Colo320D. M. xenograft model; type: in vivo; conditions: for Toxicity Dead/Treated: E7070 30 mg/kg/day QDx5, 5-FU 60 mg/kg/day Q4Dx3
Excerpt: Human colon cancer strain Colo320D.

[5] = tested on: Human colon cancer strain HCT15 xenograft; experiment: Combined use of E7070 and MMC in human colon cancer HCT15 xenograft model; type: in vivo; conditions: E7070 QDx5, MMC 4.19 mg/kg/day QDx1; for Toxicity mRBW mean (minimum relative body weight): day of minimum in parentheses
Procedure: Human colon cancer strain HCT15 (purchased from ATCC) was cultured in RPMI1640 (containing 10% FBS) in a 5% CO2gas incubator until it attained about 80% confluence, and the cells were harvested with trypsin-EDTA and suspended in Hanks balanced solution to prepare a suspension of 5×10^7 cells/ml. 0.1 ml of the cell suspension was implanted subcutaneously in each nude mouse. When the average tumor volume reached 156 mm3 after the implantation, E7070 in a dose of 25 mg/kg/day and/or MMC in a dose of 4.19 mg/kg/day were administered either alone or in combination. E7070was intravenously administered once per day for 5 days (first to fifth days), while MMC was intravenously administered once (first day). After the administration was initiated, the longer and shorter diameters of the tumor were measured at the frequency of 2 times/week with digital calipers (Mitsutoyo), and the tumor volume was calculated according to the following equation.
as §1, §2

[6] = Examination of gemcitabine hydrochloride, doxorubicin and taxol for synergistic effect (combined with E7070); conditions: used in the composition with E7070; no data given

Structure (SMILES)	Toxicity Dead/Treated [1]	Toxicity mRBW mean (minimum relative body weight) ([1]; day of minimum in parentheses)	Toxicity Dead/Treated [2]	Toxicity mRBW mean (minimum relative body weight) [2]	Toxicity Dead/Treated [4]	Toxicity Dead/Treated [5]	Toxicity mRBW mean (minimum relative body weight) [5]	antitumor activity when examined for synergistic effect [6]	also measured
CCc1c2c(nc3ccc(OC(=O)N4CCC(N5CCCCC5)CC4)cc13)-c1cc3c(c(=O)n1C2)COC(=O)[C@]3(O)CC [CPT-11, [1,4′-Bipiperidine]-1′-carboxylicacid (S)-4,11-diethyl-3,4,12,14-tetrahydro-4-hydroxy-3,14-dioxo-1H-pyrano-[3′,4′:6,7]-indolizino[1,2-b]quinolin-9-yl ester Hydrochloride trihydrate]	0/6	0.99 (8)	0/6	0.94 (7, 10)	–	–	–	–	–
NS(=O)(=O)c1ccc(S(=O)(=O)Nc2cccc3c(Cl)c[nH]c23)cc1 [E7070, N-(3-chloro-1H-indol-7-yl)-4-sulfamoylbenzenesulfonamide]	0/6	0.98 (8)	0/6	0.92 (7)	0/6	0/6	0.93 (11)	–	Tx4 [3]: 50.0 ± 8.1 days; mRTV mean ± S.D. (minimum relative tumor volume) ([1]; day of minimum in parentheses): 0.76 ± 0.42 (12)
CO[C@@]12[C@H](COC(N)=O)C3=C(C(=O)C(C)=C(N)C3=O)N1C[C@@H]1N[C@@H]12 [MMC, [1aS-(1aα,8β,8aα,8bα)]-6-amino-8-[[(aminocarbonyl)oxy]methyl]1,1a,2,8,8a,8b-hexahydro-8a-methoxy-5-methylazirino[2′,3′: 3,4]pyrrolo[1,2-a]indole-4,7-dione]	–	–	–	–	–	0/6	0.99 (11)	–	–
COc1cccc2c1C(=O)c1c(O)c3c(c(O)c1C2=O)C[C@@](O)(C(=O)CO)C[C@@H]3O[C@H]1C[C@H](N)[C@H](O)[C@H](C)O1 [doxorubicin, 10-[(3-amino-2,3,6-trideoxy-α-L-lyxo-hexopyranosyl)oxy]-7,8,9,10-tetrahydro-6,8,11-trihydroxy-8-(hydroxyacetyl)-1-methoxy-(8S-cis)-5,12-naphthacenedione]	–	–	–	–	–	–	–	excellent antitumor activity	–
Cl.Nc1ccn([C@@H]2O[C@H](CO)[C@@H](O)C2(F)F)c(=O)n1 [gemcitabine hydrochloride, 2′-deoxy-2′,2′-difluoro-cytidine hydrochloride]	–	–	–	–	–	–	–	excellent antitumor activity	–
O=c1[nH]cc(F)c(=O)[nH]1 [5-FU, 5-fluoro-2,4-(1H,3H)-pyrimidinedione]	–	–	–	–	0/6	–	–	–	Tx4 (days) mean ± S.D.: time in days for tumor size to attain 4 folds of initial tumor size ([4]; nude mice, s.c. Colo320D. M., E7070 30 mg/kg/day i.v. QDx5, 5-FU 60 mg/kg/day i.v. Q4Dx3, + simultaneous, → sequential): 10.0 ± 0.7 days
